Laboratory results as given in patent US20090226527A1, “Particulate-stabilized injectable pharmacutical compositions of posaconazole” (priority 2004, published 2009).
Values after ≈ are worked out from the molar mass of the structure shown.

Test system: infectious agents (strains tested)
Assay: organism not typed
Type: cell-based

## CCC(C)n1ncn(-c2ccc(N3CCN(c4ccc(OCC5COC(Cn6cncn6)(c6ccc(Cl)cc6Cl)O5)cc4)CC3)cc2)c1=O (stereo not shown) [Itraconazole]
Absidia spp, read-out: Geometric Mean MIC
  MIC: 0.229 µg/mL (≈ 0.325 µM)
Absidia spp, read-out: MIC[90]
  MIC: 0.063 to 2 µg/mL (≈ 0.0893 to 2.83 µM)
Alternaria spp, read-out: Geometric Mean MIC
  MIC: 0.326 µg/mL (≈ 0.462 µM)
Alternaria spp, read-out: MIC[90]
  MIC: 1 µg/mL (≈ 1.42 µM)
Apophysomyces spp, read-out: Geometric Mean MIC
  MIC: 0.707 µg/mL (≈ 1 µM)
Apophysomyces spp, read-out: MIC[90]
  MIC: 0.031 to 8 µg/mL (≈ 0.0439 to 11.3 µM)
Arthroderma terrestre, Trichophyton terrestre, read-out: Geometric Mean MIC
  MIC: 0.25 µg/mL (≈ 0.354 µM)
Arthroderma terrestre, Trichophyton terrestre, read-out: MIC[90]
  MIC: 0.25 µg/mL (≈ 0.354 µM)
Aspergillus flavus, read-out: Geometric Mean MIC
  MIC: 0.213 µg/mL (≈ 0.302 µM)
Aspergillus flavus, read-out: MIC[90]
  MIC: 1 µg/mL (≈ 1.42 µM)
Aspergillus fumigatus, read-out: Geometric Mean MIC
  MIC: 0.397 µg/mL (≈ 0.563 µM)
Aspergillus fumigatus, read-out: MIC[90]
  MIC: 1 µg/mL (≈ 1.42 µM)
Aspergillus nidulans, read-out: Geometric Mean MIC
  MIC: 0.186 µg/mL (≈ 0.264 µM)
Aspergillus nidulans, read-out: MIC[90]
  MIC: 0.5 µg/mL (≈ 0.709 µM)
Aspergillus niger, read-out: Geometric Mean MIC
  MIC: 0.834 µg/mL (≈ 1.18 µM)
Aspergillus niger, read-out: MIC[90]
  MIC: 2 µg/mL (≈ 2.83 µM)
Aspergillus sydowii, read-out: Geometric Mean MIC
  MIC: 0.5 µg/mL (≈ 0.709 µM)
Aspergillus sydowii, read-out: MIC[90]
  MIC: 0.125 to 2 µg/mL (≈ 0.177 to 2.83 µM)
Aspergillus terreus, read-out: Geometric Mean MIC
  MIC: 0.229 µg/mL (≈ 0.325 µM)
Aspergillus terreus, read-out: MIC[90]
  MIC: 0.5 µg/mL (≈ 0.709 µM)
Aspergillus ustus, read-out: Geometric Mean MIC
  MIC: 0.906 µg/mL (≈ 1.28 µM)
Aspergillus ustus, read-out: MIC[90]
  MIC: 0.125 to 2 µg/mL (≈ 0.177 to 2.83 µM)
Bipolaris spp, read-out: Geometric Mean MIC
  MIC: 0.25 µg/mL (≈ 0.354 µM)
Bipolaris spp, read-out: MIC[90]
  MIC: 0.25 µg/mL (≈ 0.354 µM)
Bjerkandera adusta, read-out: Geometric Mean MIC
  MIC: 0.057 µg/mL (≈ 0.0808 µM)
Bjerkandera adusta, read-out: MIC[90]
  MIC: 0.063 µg/mL (≈ 0.0893 µM)
Blastomyces dermatitidis, read-out: Geometric Mean MIC
  MIC: 0.045 µg/mL (≈ 0.0638 µM)
Blastomyces dermatitidis, read-out: MIC[90]
  MIC: 2 µg/mL (≈ 2.83 µM)
Candida albicans, read-out: Geometric Mean MIC
  MIC: 0.064 µg/mL (≈ 0.0907 µM)
Candida albicans, read-out: MIC[90]
  MIC: 0.25 µg/mL (≈ 0.354 µM)
Candida dubliniensis, read-out: Geometric Mean MIC
  MIC: 0.107 µg/mL (≈ 0.152 µM)
Candida dubliniensis, read-out: MIC[90]
  MIC: 0.5 µg/mL (≈ 0.709 µM)
Candida tropicalis, read-out: Geometric Mean MIC
  MIC: 0.167 µg/mL (≈ 0.237 µM)
Candida tropicalis, read-out: MIC[90]
  MIC: 0.5 µg/mL (≈ 0.709 µM)
Clavispora lusitaniae, Candida lusitaniae, read-out: Geometric Mean MIC
  MIC: 0.216 µg/mL (≈ 0.306 µM)
Clavispora lusitaniae, Candida lusitaniae, read-out: MIC[90]
  MIC: 1 µg/mL (≈ 1.42 µM)
Coccidioides immitis, read-out: Geometric Mean MIC, Coccidioides immitis
  MIC: 0.198 µg/mL (≈ 0.281 µM)
Coccidioides immitis, read-out: MIC[90], Coccidioides immitis
  MIC: 0.25 µg/mL (≈ 0.354 µM)
Cryptococcus neoformans, read-out: Geometric Mean MIC
  MIC: 0.444 µg/mL (≈ 0.629 µM)
Cryptococcus neoformans, read-out: MIC[90]
  MIC: 4 µg/mL (≈ 5.67 µM)
Curvularia spp, read-out: Geometric Mean MIC
  MIC: 0.5 µg/mL (≈ 0.709 µM)
Curvularia spp, read-out: MIC[90]
  MIC: 0.5 µg/mL (≈ 0.709 µM)
Debaryomyces hansenii, Candida famata, read-out: Geometric Mean MIC
  MIC: 0.348 µg/mL (≈ 0.493 µM)
Debaryomyces hansenii, Candida famata, read-out: MIC[90]
  MIC: 1 µg/mL (≈ 1.42 µM)
Diutina rugosa, Candida rugosa, read-out: Geometric Mean MIC
  MIC: 0.196 µg/mL (≈ 0.278 µM)
Diutina rugosa, Candida rugosa, read-out: MIC[90]
  MIC: 4 µg/mL (≈ 5.67 µM)
Dujonia zeylanoides, Candida zeylanoides, read-out: Geometric Mean MIC
  MIC: 0.105 µg/mL (≈ 0.149 µM)
Dujonia zeylanoides, Candida zeylanoides, read-out: MIC[90]
  MIC: 0.031 to 0.5 µg/mL (≈ 0.0439 to 0.709 µM)
Epidermophyton floccosum, read-out: Geometric Mean MIC
  MIC: 0.088 µg/mL (≈ 0.125 µM)
Epidermophyton floccosum, read-out: MIC[90]
  MIC: 32 µg/mL (≈ 45.3 µM)
Exophiala dermatidis, read-out: Geometric Mean MIC
  MIC: 1 µg/mL (≈ 1.42 µM)
Exophiala dermatidis, read-out: MIC[90]
  MIC: 1 µg/mL (≈ 1.42 µM)
Exophiala dermatitidis, Wangiella dermatitidis, read-out: Geometric Mean MIC
  MIC: 0.5 µg/mL (≈ 0.709 µM)
Exophiala dermatitidis, Wangiella dermatitidis, read-out: MIC[90]
  MIC: 0.063 to 1 µg/mL (≈ 0.0893 to 1.42 µM)
Exophiala jeanselmei, read-out: Geometric Mean MIC
  MIC: 0.467 µg/mL (≈ 0.662 µM)
Exophiala jeanselmei, read-out: MIC[90]
  MIC: 1 µg/mL (≈ 1.42 µM)
Exophiala moniliae, read-out: Geometric Mean MIC
  MIC: 0.031 µg/mL (≈ 0.0439 µM)
Exophiala moniliae, read-out: MIC[90]
  MIC: 0.031 µg/mL (≈ 0.0439 µM)
Fonsecae pedrosoi, read-out: Geometric Mean MIC
  MIC: 0.063 µg/mL (≈ 0.0893 µM)
Fonsecae pedrosoi, read-out: MIC[90]
  MIC: 0.008 to 0.5 µg/mL (≈ 0.0113 to 0.709 µM)
Fusarium spp, read-out: Geometric Mean MIC
  MIC: 13.3 µg/mL (≈ 18.8 µM)
Fusarium spp, read-out: MIC[90]
  MIC: 16 µg/mL (≈ 22.7 µM)
Hansenula anomala, Pichia anomala, read-out: Geometric Mean MIC
  MIC: 0.375 µg/mL (≈ 0.531 µM)
Hansenula anomala, Pichia anomala, read-out: MIC[90]
  MIC: 1 µg/mL (≈ 1.42 µM)
Histoplasma capsulatum, read-out: Geometric Mean MIC, Histoplasma capsulatum
  MIC: 0.018 µg/mL (≈ 0.0255 µM)
Histoplasma capsulatum, read-out: MIC[90], Histoplasma capsulatum
  MIC: 0.063 µg/mL (≈ 0.0893 µM)
Kluyveromyces marxianus, Candida kefyr, read-out: Geometric Mean MIC
  MIC: 0.188 µg/mL (≈ 0.266 µM)
Kluyveromyces marxianus, Candida kefyr, read-out: MIC[90]
  MIC: 0.5 µg/mL (≈ 0.709 µM)
Kluyveromyces marxianus, read-out: Geometric Mean MIC
  MIC: 0.07 µg/mL (≈ 0.0992 µM)
Kluyveromyces marxianus, read-out: MIC[90]
  MIC: 0.031 to 0.125 µg/mL (≈ 0.0439 to 0.177 µM)
Lodderomyces parapsilosis, Candida parapsilosis, read-out: Geometric Mean MIC
  MIC: 0.161 µg/mL (≈ 0.228 µM)
Lodderomyces parapsilosis, Candida parapsilosis, read-out: MIC[90]
  MIC: 0.5 µg/mL (≈ 0.709 µM)
Meyerozyma guilliermondii, Candida guilliermondii, read-out: Geometric Mean MIC
  MIC: 0.479 µg/mL (≈ 0.679 µM)
Meyerozyma guilliermondii, Candida guilliermondii, read-out: MIC[90]
  MIC: 1 µg/mL (≈ 1.42 µM)
Microsporum audouinii, read-out: Geometric Mean MIC
  MIC: 0.125 µg/mL (≈ 0.177 µM)
Microsporum audouinii, read-out: MIC[90]
  MIC: 0.125 µg/mL (≈ 0.177 µM)
Microsporum canis, read-out: Geometric Mean MIC
  MIC: 0.041 µg/mL (≈ 0.0581 µM)
Microsporum canis, read-out: MIC[90]
  MIC: 2 µg/mL (≈ 2.83 µM)
Mucor spp, read-out: Geometric Mean MIC
  MIC: 2.38 µg/mL (≈ 3.37 µM)
Mucor spp, read-out: MIC[90]
  MIC: 16 µg/mL (≈ 22.7 µM)
Nakaseomyces glabratus, Candida glabrata, read-out: Geometric Mean MIC
  MIC: 0.853 µg/mL (≈ 1.21 µM)
Nakaseomyces glabratus, Candida glabrata, read-out: MIC[90]
  MIC: 4 µg/mL (≈ 5.67 µM)
Nannizzia fulva, Microsporum fulvum, read-out: Geometric Mean MIC
  MIC: 4 µg/mL (≈ 5.67 µM)
Nannizzia fulva, Microsporum fulvum, read-out: MIC[90]
  MIC: 4 µg/mL (≈ 5.67 µM)
Nannizzia gypsea, Microsporum gypseum, read-out: Geometric Mean MIC
  MIC: 0.044 µg/mL (≈ 0.0624 µM)
Nannizzia gypsea, Microsporum gypseum, read-out: MIC[90]
  MIC: 0.016 to 0.5 µg/mL (≈ 0.0227 to 0.709 µM)
Nannizzia persicolor, Microsporum persicolor, read-out: Geometric Mean MIC
  MIC: 0.5 µg/mL (≈ 0.709 µM)
Nannizzia persicolor, Microsporum persicolor, read-out: MIC[90]
  MIC: 0.5 µg/mL (≈ 0.709 µM)
Paecilomyces spp, read-out: Geometric Mean MIC
  MIC: 0.64 µg/mL (≈ 0.907 µM)
Paecilomyces spp, read-out: MIC[90]
  MIC: 2 µg/mL (≈ 2.83 µM)
Papiliotrema laurentii, Cryptococcus laurentii, read-out: Geometric Mean MIC
  MIC: 0.397 µg/mL (≈ 0.563 µM)
Papiliotrema laurentii, Cryptococcus laurentii, read-out: MIC[90]
  MIC: 0.25 to 0.5 µg/mL (≈ 0.354 to 0.709 µM)
Paracoccidioides brasiliensis, read-out: Geometric Mean MIC, Paracoccidioides brasiliensis
  MIC: 0.025 µg/mL (≈ 0.0354 µM)
Paracoccidioides brasiliensis, read-out: MIC[90], Paracoccidioides brasiliensis
  MIC: 0.063 µg/mL (≈ 0.0893 µM)
Penicillium spp, read-out: Geometric Mean MIC
  MIC: 0.853 µg/mL (≈ 1.21 µM)
Penicillium spp, read-out: MIC[90]
  MIC: 2 µg/mL (≈ 2.83 µM)
Pichia kudriavzevii, Candida krusei, read-out: Geometric Mean MIC
  MIC: 0.576 µg/mL (≈ 0.816 µM)
Pichia kudriavzevii, Candida krusei, read-out: MIC[90]
  MIC: 1 µg/mL (≈ 1.42 µM)
Pleurothecium obovoideum, Ramichloridium obovoideum, read-out: Geometric Mean MIC
  MIC: 0.016 µg/mL (≈ 0.0227 µM)
Pleurothecium obovoideum, Ramichloridium obovoideum, read-out: MIC[90]
  MIC: 0.016 µg/mL (≈ 0.0227 µM)
Rhizomucor spp, read-out: Geometric Mean MIC
  MIC: 0.016 µg/mL (≈ 0.0227 µM)
Rhizomucor spp, read-out: MIC[90]
  MIC: 0.016 µg/mL (≈ 0.0227 µM)
Rhizopus spp, read-out: Geometric Mean MIC
  MIC: 3.28 µg/mL (≈ 4.65 µM)
Rhizopus spp, read-out: MIC[90]
  MIC: 16 µg/mL (≈ 22.7 µM)
Saccharomyces cerevisiae, read-out: Geometric Mean MIC
  MIC: 0.418 µg/mL (≈ 0.592 µM)
Saccharomyces cerevisiae, read-out: MIC[90]
  MIC: 2 µg/mL (≈ 2.83 µM)
Scedosporium apiospermum, read-out: Geometric Mean MIC
  MIC: 1.34 µg/mL (≈ 1.9 µM)
Scedosporium apiospermum, read-out: MIC[90]
  MIC: 32 µg/mL (≈ 45.3 µM)
Scedosporium boydii, Pseudallescheria boydii, read-out: Geometric Mean MIC
  MIC: 0.506 µg/mL (≈ 0.717 µM)
Scedosporium boydii, Pseudallescheria boydii, read-out: MIC[90]
  MIC: 1 µg/mL (≈ 1.42 µM)
Sporothrix schenckii, read-out: Geometric Mean MIC
  MIC: 0.302 µg/mL (≈ 0.428 µM)
Sporothrix schenckii, read-out: MIC[90]
  MIC: 0.5 µg/mL (≈ 0.709 µM)
Trichophyton mentagrophytes, read-out: Geometric Mean MIC
  MIC: 0.041 µg/mL (≈ 0.0581 µM)
Trichophyton mentagrophytes, read-out: MIC[90]
  MIC: 0.25 µg/mL (≈ 0.354 µM)
Trichophyton rubrum, Trichophyton raubitschekii, read-out: Geometric Mean MIC
  MIC: 0.25 µg/mL (≈ 0.354 µM)
Trichophyton rubrum, Trichophyton raubitschekii, read-out: MIC[90]
  MIC: 0.25 µg/mL (≈ 0.354 µM)
Trichophyton rubrum, read-out: Geometric Mean MIC
  MIC: 0.074 µg/mL (≈ 0.105 µM)
Trichophyton rubrum, read-out: MIC[90]
  MIC: 0.25 µg/mL (≈ 0.354 µM)
Trichophyton soudanense, read-out: Geometric Mean MIC
  MIC: 4 µg/mL (≈ 5.67 µM)
Trichophyton soudanense, read-out: MIC[90]
  MIC: 4 µg/mL (≈ 5.67 µM)
Trichophyton tonsurans, read-out: Geometric Mean MIC
  MIC: 0.036 µg/mL (≈ 0.051 µM)
Trichophyton tonsurans, read-out: MIC[90]
  MIC: 0.063 µg/mL (≈ 0.0893 µM)
Trichosporon spp, read-out: Geometric Mean MIC
  MIC: 1.12 µg/mL (≈ 1.59 µM)
Trichosporon spp, read-out: MIC[90]
  MIC: 0.5 to 2 µg/mL (≈ 0.709 to 2.83 µM)
